The values below come from publication PMC9098912, “Molecular basis for inhibiting human glucose transporters by exofacial inhibitors” (Nature Communications, 2022).

Molecules are shown by their SMILES. Values joined by “and” are separate entries in the source; they are usually repeats but may differ in a detail not shown here. Equal entries are not always repeated.

Experiment [1] concerns the target T1, GLUT3exo (GLUT3 S64W and I305W) (Homo sapiens, UniProt P11169, I305W/N43T/S64W).
T1 construct: His10 (N); made in house; host or cells: Sf9 insect cells (baculovirus)
As to the kind of experiment: biochemical. To be noted: GLUT3 dTrp mutant, log [CCB]. The class given is binding. The protocol: Following the same principle for the engineering of XylE-WW, we introduced two Trp substitutions, S64W and I305W, on the extracellular segments of TM2 and TM8 of GLUT3, respectively. This variant will be referred to as GLUT3exo hereafter (Fig. 1a). The two bulky substituents were expected to trap GLUT3 in an outward-facing conformation.
(§1) All mutants were generated by standard PCR-based strategy.
(§2) Inhibitors with serial dilutions were mixed with indicated protein. […] MST analyses were conducted on a Monolith NT. […] The MST data was analyzed by Monolith NT.115.

The target of experiment [2] is T2, human glucose transporter GLUT1(N45T) (Homo sapiens, UniProt P11166, N45T).
T2 construct: made in house
T2 sequence (P11166 1-492 N45T): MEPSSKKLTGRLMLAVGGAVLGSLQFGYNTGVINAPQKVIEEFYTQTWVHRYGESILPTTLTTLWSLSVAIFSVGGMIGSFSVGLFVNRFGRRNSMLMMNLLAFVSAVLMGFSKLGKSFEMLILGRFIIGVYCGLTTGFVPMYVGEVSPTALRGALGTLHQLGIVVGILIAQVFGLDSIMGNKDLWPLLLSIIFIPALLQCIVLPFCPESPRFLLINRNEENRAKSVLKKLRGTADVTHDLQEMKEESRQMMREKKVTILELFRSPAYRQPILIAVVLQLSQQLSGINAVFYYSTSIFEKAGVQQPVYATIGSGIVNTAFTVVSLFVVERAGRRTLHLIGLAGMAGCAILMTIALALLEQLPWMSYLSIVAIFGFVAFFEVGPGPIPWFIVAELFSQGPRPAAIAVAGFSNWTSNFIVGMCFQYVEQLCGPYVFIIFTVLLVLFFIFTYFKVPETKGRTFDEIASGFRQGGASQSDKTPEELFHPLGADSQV
As to the kind of experiment: Proteoliposome-based counterflow assay, inhibition of D-[2-3H]-glucose transport. The note with it: 100 μM inhibitor; for Figure S1c: transport activity in presence of inhibitor (value1-3) / Inhibition of glucose uptake: GLUT1; for Figure S1c: transport activity in presence of inhibitor (value1-3): 100 µM. The class given is biochemical. As to the method: as §1
(§3) All counterflow assays were performed at 25 °C. […] Liposome without protein was used as negative control.
(§4) All experiments were repeated at least three times.

Experiment [3] deals with T3, WT GLUT3 (Homo sapiens, UniProt P11169, N43T).
T3 construct: His10 (N); made in house; host or cells: Sf9 insect cells (baculovirus)
T3 sequence (P11169 1-496 N43T): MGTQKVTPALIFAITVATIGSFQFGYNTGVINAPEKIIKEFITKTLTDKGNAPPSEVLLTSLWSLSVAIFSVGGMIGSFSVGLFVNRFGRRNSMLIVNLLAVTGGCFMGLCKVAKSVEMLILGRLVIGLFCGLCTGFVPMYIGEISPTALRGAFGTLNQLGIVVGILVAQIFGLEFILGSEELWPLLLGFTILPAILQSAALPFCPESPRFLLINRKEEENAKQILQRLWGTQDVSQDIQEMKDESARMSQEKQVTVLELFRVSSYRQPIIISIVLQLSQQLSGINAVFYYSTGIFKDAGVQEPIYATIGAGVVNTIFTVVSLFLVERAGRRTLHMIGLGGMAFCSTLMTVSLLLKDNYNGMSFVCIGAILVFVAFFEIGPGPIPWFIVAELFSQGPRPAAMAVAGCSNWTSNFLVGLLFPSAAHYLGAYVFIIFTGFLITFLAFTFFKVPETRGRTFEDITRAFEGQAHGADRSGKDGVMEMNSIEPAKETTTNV
As to the kind of experiment: Microscale thermophoresis (MST) binding assay. The note with it: GLUT3, log [CCB]. Details: Figure 1e middle: MST binding curve, Mean / Figure 1e right: MST binding curve, Mean / Figure 2c: MST binding curve, Mean: unit not given here. As to the method: as §1, §2

Experiment [4] deals with T4, human GLUT3(N43T) (Homo sapiens, UniProt P11169, N43T).
T4 construct: His10 (N); made in house; host or cells: Sf9 insect cells (baculovirus)
T4 sequence (P11169 1-496 N43T): T3 sequence (P11169 1-496 N43T)
As to the kind of experiment: Proteoliposome-based counterflow assay, inhibition of D-[2-3H]-glucose transport. To be noted: 100 μM inhibitor; for Figure S1d: transport activity in presence of inhibitor (value1-3): three independent experiments, 100 µM. The class given is biochemical. The protocol:
as §1, §3, §4

Experiment [5] deals with E. coli (strain O157:H7) D-xylose:proton symporter XylE (Escherichia coli O157:H7, UniProt P0AGF5). The note with it: for Figure S1b: transport activity in presence of inhibitor (value1-3): 100 µM. The protocol: The recombinant human glucose transporter GLUT1(N45T) and E. coli (strain O157:H7) D-xylose:proton symporter XylE were expressed and purified as described previously[17],[26]. […] In brief, the cDNA of human GLUT3 was cloned into a modified pFastBac vector (Invitrogen) fused with an N-terminal His10 tag. All mutants were generated by standard PCR-based strategy.
Chain of E. coli (strain O157:H7) D-xylose:proton symporter XylE (P0AGF5 whole entry, the tested form may be a part): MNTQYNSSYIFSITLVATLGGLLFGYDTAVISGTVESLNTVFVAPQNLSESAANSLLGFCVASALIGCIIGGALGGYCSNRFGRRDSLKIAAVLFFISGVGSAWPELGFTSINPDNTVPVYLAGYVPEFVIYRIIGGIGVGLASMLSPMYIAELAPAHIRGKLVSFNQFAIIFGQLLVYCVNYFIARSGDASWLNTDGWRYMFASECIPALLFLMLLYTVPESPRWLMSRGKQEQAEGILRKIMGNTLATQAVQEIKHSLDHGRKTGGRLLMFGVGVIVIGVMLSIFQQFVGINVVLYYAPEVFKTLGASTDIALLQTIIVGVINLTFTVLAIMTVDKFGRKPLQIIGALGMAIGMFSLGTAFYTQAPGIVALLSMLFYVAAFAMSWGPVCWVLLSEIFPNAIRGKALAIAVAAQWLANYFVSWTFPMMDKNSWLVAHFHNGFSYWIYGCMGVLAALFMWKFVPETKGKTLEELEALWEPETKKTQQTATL
E. coli polar lipids (Avanti) were dissolved, dried, and resuspended to a final concentration of 20 mg/ml with the KPM 6.5 buffer (50 mM potassium phosphate, 2 mM MgSO4; pH 6.5) supplemented with 50 mM D-glucose or xylose (Sigma). After freeze-and-thaw with liquid nitrogen, the liposomes were extruded through 0.4 μm polycarbonate membranes (Millipore) and incubated with 1% n-octyl-β-d-glucoside (β-OG; Anatrace) at 4 °C for 30 min. Purified protein was incubated with liposomes at a ratio of ~1:100 (w/w) for 60 min. Then β-OG was removed by incubating with Bio-Beads SM2 (Bio-Rad) overnight. The proteoliposomes were subject to freeze-and-thaw again and extruded through 0.4 μm polycarbonate membranes. The homogenized proteoliposomes were ultracentrifuged at 100,000 g at 4 °C for 1 h and rinsed twice with the ice cold KPM 6.5 buffer. Finally, the proteoliposomes were resuspended in the KPM 6.5 buffer to a final concentration of 100 mg/ml (phospholipids).
All counterflow assays were performed at 25 °C. For each assay, an aliquot of 2 μl proteoliposomes was added into 98 μl KPM 6.5 buffer plus 1 μCi D-[2-^3H] glucose (specific radioactivity 23.4 Ci/mmol, PerkinElmer) or D-[^3H] xylose (20 Ci/mmol, American Radiolabeled Chemicals, Inc.). The final concentrations of the external D-[2-^3H] glucose and D-[^3H] xylose were 0.42 μM and 0.5 μM, respectively. Uptake of radio-labeled substrates was terminated at 30 s by rapidly filtering the solution through 0.22 μm GSTF filters (Millipore) and washed with 2.5 ml KPM 6.5 buffer. The filter was solubilized with 0.5 ml Optiphase HISAFE 3 (PerkinElmer) for 30 min for liquid scintillation counting with MicroBeta JET (PerkinElmer). Liposome without protein was used as negative control.
For inhibition assays, an aliquot of 2 μL proteoliposome pre-incubated with 100 μM indicated inhibitors for 0.5 h on ice was added to 98 μL KPM buffer containing 1 μCi D-[2-^3H]-glucose or D-[^3H] xylose with 100 μM inhibitors. To determine the IC50 of the inhibitor, a series of concentrations of the inhibitor was applied as indicated.
All experiments were repeated at least three times. Data for liposome-based counterflow assay were analyzed using GraphPad Prism 6.

T1 sequence (P11169 whole entry N43T/S64W/I305W): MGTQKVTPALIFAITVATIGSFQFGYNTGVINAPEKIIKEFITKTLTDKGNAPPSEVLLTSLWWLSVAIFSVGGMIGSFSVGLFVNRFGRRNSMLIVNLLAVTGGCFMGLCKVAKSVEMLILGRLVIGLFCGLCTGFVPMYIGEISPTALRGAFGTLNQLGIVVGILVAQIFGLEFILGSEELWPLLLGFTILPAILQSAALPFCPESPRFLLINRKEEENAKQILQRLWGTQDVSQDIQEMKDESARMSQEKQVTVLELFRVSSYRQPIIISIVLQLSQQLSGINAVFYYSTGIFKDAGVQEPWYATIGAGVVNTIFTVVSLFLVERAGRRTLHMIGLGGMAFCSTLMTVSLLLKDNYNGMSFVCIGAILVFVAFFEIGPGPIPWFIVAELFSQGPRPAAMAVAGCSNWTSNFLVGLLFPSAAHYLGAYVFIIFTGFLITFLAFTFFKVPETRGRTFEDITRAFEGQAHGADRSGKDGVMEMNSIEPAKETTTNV

On to `C=C1[C@@H](C)[C@H]2[C@H](Cc3ccccc3)NC(=O)[C@]23OC(=O)/C=C/[C@H](O)CCC[C@@H](C)C/C=C/[C@H]3[C@@H]1O` [CCB, cytochalasin B], for which the “Figure 1e middle: MST binding curve, Mean” value (“Figure 1e middle” for short) in experiment [1] (M -3.69897) amounted to 12.3879; in experiment [1] (M -4) it was 6.9876; in experiment [1] (M -4.30103), 10.2535; in experiment [1] (M -4.60206) it was 7.6812; in experiment [1] (M -4.90309) it was 5.043; in experiment [1] (M -5.20412) it was 1.714. Besides, the “Figure 1e middle” value in experiment [1] (M -5.50515) came out at 6.889; in experiment [1] (M -5.80618), 3.628; in experiment [1] (M -6.10721) it was 6.7864; in experiment [1] (M -6.40824), 7.2964; in experiment [1] (M -6.70927), 7.035; in experiment [1] (M -7.0103), 6.292. Moreover, the “Figure 1e middle” value is reported as 16.166 in experiment [1] (M -7.31133); 24.9543 in experiment [1] (M -7.61236); 19.4149 in experiment [1] (M -7.91339); 19.7489 in experiment [1] (M -8.21442); 94.2771 in experiment [3] (M -5.20412); 91.6933 in experiment [3] (M -5.50515). The “Figure 1e middle” value in experiment [3] (M -5.80618) was 73.4039; in experiment [3] (M -6.10721), 45.8611; in experiment [3] (M -6.40824), 32.1651; in experiment [3] (M -7.0103), 19.0619; in experiment [3] (M -7.31133), 12.7467; in experiment [3] (M -7.61236), 11.0147. Besides, the “Figure 1e middle” value is 6.7796 in experiment [3] (M -7.91339), 9.6216 in experiment [3] (M -8.51545), 7.333 in experiment [3] (M -8.81648) and 0.514 in experiment [3] (M -9.11751). In addition, the “Figure S1c: transport activity in presence of inhibitor (value1-3)” value (shortened to “Figure S1c … of inhibitor (value1-3)”) in experiment [2] (three independent experiments) was 7.4821 and 5.9756. The activity at 100 µM in experiment [2] (read-out: Figure S1c: transport activity in presence of inhibitor (value1-3), GLUT1, three independent experiments) was 5.88%.
On to `COC1OC(CO)C(O)C(O)C1OC(=O)c1cc(Cl)c(OCc2nc3ccccc3n2C(C)C)c(Cl)c1` (stereo not drawn) [SA2], for which, in experiment [4], the “Inhibition of glucose uptake” value was “almost completely abolished”; the “Figure S1d: transport activity in presence of inhibitor (value1-3)” value (“Figure S1d … of inhibitor (value1-3)” for short) is 15.2946 and 13.6199 and 13.8419. Besides, the “Inhibition of glucose uptake” value in experiment [2] was “almost completely abolished”. In addition, in experiment [2] (three independent experiments), the “Figure S1c … of inhibitor (value1-3)” value was 23.4003 and 23.4095 and 22.1495. Also, in experiment [5], the “Inhibition of xylose transport” value is on record as “moderately inhibited”; the “Figure S1b: transport activity in presence of inhibitor (value1-3)” value (shortened to “Figure S1b … of inhibitor (value1-3)”) is 58.0461 and 66.7656 and 51.1774.
Take `C#CCCC(=O)Nc1cccc(COc2c(Cl)cc(C(=O)OC3C(OC)OC(CO)C(O)C3O)cc2OC)c1` (stereo not drawn) [SA3]: in experiment [4], the “Inhibition of glucose uptake” value is given as “mildly inhibited”; the “Figure S1d … of inhibitor (value1-3)” value is 34.7779 and 38.4924 and 41.7666. Further, the “Inhibition of glucose uptake” value in experiment [2] is reported as “mildly inhibited”. Moreover, the “Figure S1c … of inhibitor (value1-3)” value in experiment [2] (three independent experiments) is 52.3152 and 50.1788 and 49.4073. Further, the “Figure S1b … of inhibitor (value1-3)” value in experiment [5] was 88.5699 and 92.3449 and 87.2521.
`COc1c(Cl)c(OCc2ccccc2)c(Cl)c(C)c1C(=O)OC1C(OC)OC(CO)C(O)C1O` (stereo not drawn) [SA4]: the “Inhibition of glucose uptake” value in experiment [4] and in experiment [2] was “almost completely abolished” each time. Moreover, the “Figure S1d … of inhibitor (value1-3)” value in experiment [4] was 6.3677 and 8.1365 and 7.922. Further, in experiment [2] (three independent experiments), the “Figure S1c … of inhibitor (value1-3)” value is 12.2388 and 8.7146 and 10.3352. For the same compound, in experiment [5], the “Figure S1b … of inhibitor (value1-3)” value is 106.928 and 95.1823 and 98.9097.
As to `CCOC(=O)c1c(C)c(Cl)c(OC(=O)c2c(C)c(Cl)c(O)c(Cl)c2OC)c(Cl)c1OC` [SA5], the “Figure S1d … of inhibitor (value1-3)” value in experiment [4] was 105.451 and 87.0011 and 100.662. Also, the “Figure S1c … of inhibitor (value1-3)” value in experiment [2] (three independent experiments) is 101.106 and 93.647 and 95.1991. Also, the “Figure S1b … of inhibitor (value1-3)” value in experiment [5] is 86.3087 and 90.0117 and 94.9979.
With `COc1ccccc1N1CCN(c2ncnc3c2cnn3-c2cccc(CN)c2)CC1` [SA6], in experiment [4], the “Inhibition of glucose uptake” value is “almost completely abolished”; the “Figure S1d … of inhibitor (value1-3)” value is 8.1554 and 7.7188 and 4.7344. Besides, the “Inhibition of glucose uptake” value in experiment [2] is given as “almost completely abolished”. Moreover, the “Figure S1c … of inhibitor (value1-3)” value in experiment [2] (three independent experiments) was 5.6059 and 7.7469 and 6.8521. The “Figure S1b … of inhibitor (value1-3)” value in experiment [5] is 95.2845 and 101.756 and 111.538.
